Among the data in patent US12295396B2, “Antagonists of T2R54 and compositions and uses thereof” (Firmenich Incorporated, priority 2018, dated 2025) are IC50 values, retold here.

The target of one test is T1, hT2R54 (Homo sapiens, UniProt P59534).
T1 construct: expressed in transfected cells; it overexpresses a promiscuous G protein
T1 sequence (P59534 1-338): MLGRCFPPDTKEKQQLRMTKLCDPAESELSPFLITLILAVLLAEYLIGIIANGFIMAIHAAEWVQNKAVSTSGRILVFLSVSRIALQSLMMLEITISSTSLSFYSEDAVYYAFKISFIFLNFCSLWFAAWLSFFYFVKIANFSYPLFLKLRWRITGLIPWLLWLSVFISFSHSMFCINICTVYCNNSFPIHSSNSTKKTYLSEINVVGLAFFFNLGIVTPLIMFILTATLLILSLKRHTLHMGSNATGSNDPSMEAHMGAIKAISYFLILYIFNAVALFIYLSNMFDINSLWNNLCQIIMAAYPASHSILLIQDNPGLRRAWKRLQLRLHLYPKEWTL
In words: Cell-based assay for measuring hT2R54 inhibition (FLIPR calcium, Fluo4AM, acetaminophen as bitter agonist). As to conditions: Table 5; cells stably expressing hT2R54 and a promiscuous G protein; read-out: hT2R54 IC50. The essentials: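 The readout was FLIPR calcium (Fluo4AM, 10 s baseline, 3 min post-addition) in cells stably carrying hT2R54 plus a promiscuous G protein, with host cells lacking hT2R54 as counter-control. Acetaminophen concentration series were tested with and without set test-compound levels. Half-maximal block of the agonist response gave the EC50/IC50.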
With `CNC(=O)C1CCCCN1CC(=O)Nc1cc2c(cc1C(C)=O)OCO2` (stereo not drawn) [compound 160], the IC50 (commonly the concentration that inhibits the measured activity by half) amounted to 1270 nM. The same measure, in the same setting: the figure for `CNC(=O)C1CCN(CC(=O)Nc2cc3c(cc2C(C)=O)OCO3)CC1` [compound 161] is 1350 nM.

As to `CCNC(=O)C1CCN(CC(=O)Nc2cc3c(cc2C(C)=O)OCO3)CC1` [compound 162], the IC50 is 747 nM. Still for that read-out and setting: the figure for `CC(=O)c1cc2c(cc1NC(=O)CN1CCC(C(=O)Nc3cccnc3)CC1)OCO2` [compound 163] is 459 nM.

On to `CC(=O)c1cc2c(cc1NC(=O)CN1CCC(C(=O)Nc3ccccc3)CC1)OCO2` [compound 164], for which the IC50 came out at 2090 nM. As for `CC(=O)c1cc2c(cc1NC(=O)CN1CCC(C(=O)NCc3ccccc3)CC1)OCO2` [compound 165], the IC50 stood at 1400 nM.

The same test, now with this note: Table 6; cells stably expressing hT2R54 and a promiscuous G protein; read-out: hT2R54 IC50.
With `CC(=O)NC1CCN(CC(=O)Nc2cc3c(cc2C(C)=O)OCO3)CC1` [compound 166, 2-(4-Acetamidopiperidin-1-yl)-N-(6-acetylbenzo[d][1,3]dioxol-5-yl)acetamide], the IC50 stood at 264 nM. `CCC(=O)NC1CCN(CC(=O)Nc2cc3c(cc2C(C)=O)OCO3)CC1` [compound 167]: the IC50 was found to be 310 nM.

With `CC(=O)c1cc2c(cc1NC(=O)CN1CCC(NC(=O)C(C)C)CC1)OCO2` [compound 168], the IC50 came out at 140 nM. Take `CC(=O)c1cc2c(cc1NC(=O)CN1CCC(NC(=O)CC(C)C)CC1)OCO2` [compound 169]: the IC50 came to 140 nM. `CC(=O)c1cc2c(cc1NC(=O)CN1CCC(CNC(=O)CC(C)C)CC1)OCO2` [compound 170]: the IC50 worked out at 188 nM. Consider `CC(=O)c1cc2c(cc1NC(=O)CN1CCC(NC(=O)c3ccccc3)CC1)OCO2` [compound 171], for which the IC50 came out at 60 nM. `CC(=O)c1cc2c(cc1NC(=O)CN1CCC(NC(=O)c3ccco3)CC1)OCO2` [compound 172]: the IC50 came to 690 nM. As for `CC(=O)c1cc2c(cc1NC(=O)CN1CCC(NC(=O)c3cccs3)CC1)OCO2` [compound 173], the IC50 is 110 nM. Turning to `CC(=O)c1cc2c(cc1NC(=O)CN1CCC(NC(=O)c3ccccn3)CC1)OCO2` [compound 174], the IC50 is 270 nM. `CC(=O)c1cc2c(cc1NC(=O)CN1CCC(NC(=O)c3cccnc3)CC1)OCO2` [compound 175]: the IC50 stood at 110 nM.

On to `CC(=O)c1cc2c(cc1NC(=O)CN1CCC(NC(=O)c3ccncc3)CC1)OCO2` [compound 176], for which the IC50 is 450 nM. As for `CC(=O)c1cc2c(cc1NC(=O)CNC1CCN(C(=O)CC(C)C)CC1)OCO2` [compound 177], the IC50 came to 200 nM. For `CC(=O)c1cc2c(cc1NC(=O)CNC1CCN(C(=O)c3ccco3)CC1)OCO2` [compound 178], the IC50 stood at 60 nM.

With `CC(=O)c1cc2c(cc1NC(=O)CNC1CCN(C(=O)c3cccnc3)CC1)OCO2` [compound 179], the IC50 was 90 nM. In the case of `CC(=O)c1cc2c(cc1NC(=O)CN1CCC(N(C)C(=O)CC(C)C)CC1)OCO2` [compound 180], the IC50 is 589 nM. Turning to `CC(=O)c1cc2c(cc1NC(=O)CN1CCC(N(C)C(=O)c3ccco3)CC1)OCO2` [compound 181], the IC50 was 676 nM. `CC(=O)c1cc2c(cc1NC(=O)CN1CCC(N(C)C(=O)c3cccnc3)CC1)OCO2` [compound 182]: the IC50 stood at 455 nM.

Still in this test, the particulars now being: Table 7; cells stably expressing hT2R54 and a promiscuous G protein; read-out: hT2R54 IC50.
As for `CC(=O)c1cc2c(cc1NC(=O)CN(C)C1CCN(C(=O)c3ccco3)CC1)OCO2` [compound 183, N-(6-Acetylbenzo[d][1,3]dioxol-5-yl)-2-((1-(furan-2-carbonyl)piperidin-4-yl)(methyl)amino)acetamide], the IC50 turned out to be 61 nM. The same measure, in the same setting: the figure for `CC(=O)c1cc2c(cc1NC(=O)CN(C)C1CCN(C(=O)CC(C)C)CC1)OCO2` [compound 184, N-(6-Acetylbenzo[d][1,3]dioxol-5-yl)-2-(methyl(1-(3-methylbutanoyl)piperidin-4-yl)amino)acetamide] is 98 nM; for `CC(=O)c1cc2c(cc1NC(=O)CN(C)C1CCCN(C(=O)CC(C)C)C1)OCO2` (stereo not drawn) [compound 185] it is 50 nM; for `CC(=O)c1cc2c(cc1NC(=O)CN(C)C1CCCN(C(=O)c3ccco3)C1)OCO2` (stereo not drawn) [compound 186] it is 20 nM. On to `CC(=O)c1cc2c(cc1NC(=O)CN(C)C1CCCN(C(=O)c3cccnc3)C1)OCO2` (stereo not drawn) [compound 187], for which the IC50 came out at 100 nM. With `CCOC(=O)N1CCCC(N(C)CC(=O)Nc2cc3c(cc2C(C)=O)OCO3)C1` (stereo not drawn) [compound 188], the IC50 is 90 nM. On the same count and under the same terms, the figure for `CCNC(=O)N1CCCC(N(C)CC(=O)Nc2cc3c(cc2C(C)=O)OCO3)C1` (stereo not drawn) [compound 189] is 30 nM; for `CCCS(=O)(=O)N1CCCC(N(C)CC(=O)Nc2cc3c(cc2C(C)=O)OCO3)C1` (stereo not drawn) [compound 190] it is 40 nM.

Still in this test, the particulars now being: Table 8; read-out: hT2R54 IC50.
For `CC(=O)c1cc2c(cc1NC(=O)CC1CCCN(C(=O)CC(C)C)C1)OCO2` (stereo not drawn) [compound 193, N-(6-acetylbenzo[d][1,3]dioxol-5-yl)-2-(1-(3-methylbutanoyl)piperidin-3-yl)acetamide], the IC50 worked out at 17 nM. For the compound `CC(=O)c1cc2c(cc1NC(=O)CC1CCCN(C(=O)c3ccco3)C1)OCO2` (stereo not drawn) [compound 194, N-(6-Acetylbenzo[d][1,3]dioxol-5-yl)-2-(1-(furan-2-carbonyl)piperidin-3-yl)acetamide], the IC50 stood at 6 nM. On to `CC(=O)c1cc2c(cc1NC(=O)CC1CCCN(C(=O)c3cccs3)C1)OCO2` (stereo not drawn) [compound 195, N-(6-Acetylbenzo[d][1,3]dioxol-5-yl)-2-(1-(thiophene-2-carbonyl)piperidin-3-yl)acetamide], for which the IC50 was 8 nM. The same measure, in the same setting: the figure for `CC(=O)c1cc2c(cc1NC(=O)CC1CCCN(C(=O)c3ccoc3)C1)OCO2` (stereo not drawn) [compound 196, N-(6-Acetylbenzo[d][1,3]dioxol-5-yl)-2-(1-(furan-3-carbonyl)piperidin-3-yl)acetamide] is 184 nM; for `CC(=O)c1cc2c(cc1NC(=O)CC1CCN(C(=O)c3ccco3)CC1)OCO2` [compound 197, N-(6-Acetylbenzo[d][1,3]dioxol-5-yl)-2-(1-(furan-2-carbonyl)piperidin-4-yl)acetamide] it is 6 nM.

Regarding `CC(=O)c1cc2c(cc1NC(=O)CC1CCN(C(=O)CC(C)C)CC1)OCO2` [compound 198, N-(6-acetylbenzo[d][1,3]dioxol-5-yl)-2-(1-(3-methylbutanoyl)piperidin-4-yl)acetamide], the IC50 was 45 nM.

Regarding `CC(=O)c1cc2c(cc1NC(=O)CC1CCN(C(=O)c3cccs3)CC1)OCO2` [compound 199, N-(6-Acetylbenzo[d][1,3]dioxol-5-yl)-2-(1-(thiophene-2-carbonyl)piperidin-4-yl)acetamide], the IC50 was found to be 12 nM. On the same count and under the same terms, the figure for `CC(=O)c1cc2c(cc1NC(=O)CC1CCN(C(=O)c3ccoc3)CC1)OCO2` [compound 200, N-(6-Acetylbenzo[d][1,3]dioxol-5-yl)-2-(1-(furan-3-carbonyl)piperidin-4-yl)acetamide] is 149 nM; for `CC(=O)c1cc2c(cc1NC(=O)CC1CCN(C(=O)c3cnn(C)c3)CC1)OCO2` [compound 201, N-(6-Acetylbenzo[d][1,3]dioxol-5-yl)-2-(1-(1-methyl-1H-pyrazole-4-carbonyl)piperidin-4-yl)acetamide] it is 339 nM. On the same count and under the same terms, the figure for `CC(=O)c1cc2c(cc1NC(=O)CC1CCCN(C(C)=O)C1)OCO2` (stereo not drawn) [compound 202] is 35 nM; for `CCC(=O)N1CCCC(CC(=O)Nc2cc3c(cc2C(C)=O)OCO3)C1` (stereo not drawn) [compound 203] it is 17 nM; for `CCCC(=O)N1CCCC(CC(=O)Nc2cc3c(cc2C(C)=O)OCO3)C1` (stereo not drawn) [compound 204] it is 16 nM. `CC(=O)c1cc2c(cc1NC(=O)CC1CCCN(C(=O)C(C)C)C1)OCO2` (stereo not drawn) [compound 205]: the IC50 is 12 nM. `CC(=O)c1cc2c(cc1NC(=O)C[C@@H]1CCCN(C(=O)CC(C)C)C1)OCO2` [compound 206]: the IC50 came to 25 nM. As for `CC(=O)c1cc2c(cc1NC(=O)CC1CCCN(C(=O)CC(C)(C)C)C1)OCO2` (stereo not drawn) [compound 207], the IC50 is 360 nM. Take `CCC(C)C(=O)N1CCCC(CC(=O)Nc2cc3c(cc2C(C)=O)OCO3)C1` (stereo not drawn) [compound 208]: the IC50 was determined as 170 nM. Same read-out and setting: the figure for `CC(=O)c1cc2c(cc1NC(=O)CC1CCCN(C(=O)C3CCCO3)C1)OCO2` (stereo not drawn) [compound 209] is 56 nM.

Consider `CC(=O)c1cc2c(cc1NC(=O)CC1CCCN(C(=O)C3CCOC3)C1)OCO2` (stereo not drawn) [compound 210], for which the IC50 was determined as 1340 nM. For the compound `CC(=O)c1cc2c(cc1NC(=O)CC1CCCN(C(=O)C3CCCCO3)C1)OCO2` (stereo not drawn) [compound 211], the IC50 was found to be 18 nM. For `CC(=O)c1cc2c(cc1NC(=O)CC1CCCN(C(=O)CN(C)C)C1)OCO2` (stereo not drawn) [compound 212], the IC50 was > 1000 nM. For `CCOC(=O)N1CCCC(CC(=O)Nc2cc3c(cc2C(C)=O)OCO3)C1` (stereo not drawn) [compound 213], the IC50 turned out to be 50 nM.

The test is the same for the next values; noted with them: given in example heading; read-out: IC50.
As to `CCOC(=O)C1CN(C(=O)c2ccco2)CCN1CC(=O)Nc1cc2c(cc1C(C)=O)OCO2` (stereo not drawn) [compound 191, Ethyl 1-(2-((6-Acetylbenzo[d][1,3]dioxol-5-yl)amino)-2-oxoethyl)-4-(furan-2-carbonyl)piperazine-2-carboxylate], the IC50 turned out to be 16 nM. As to `CCOC(=O)C1CN(C(=O)CC(C)C)CCN1CC(=O)Nc1cc2c(cc1C(C)=O)OCO2` (stereo not drawn) [compound 192, Ethyl 1-(2-((6-Acetylbenzo[d][1,3]dioxol-5-yl)amino)-2-oxoethyl)-4-(3-methylbutanoyl)piperazine-2-carboxylate], the IC50 came out at 57 nM.
